Patent US9629843B2, “MTOR modulators and uses thereof” (The Regents of the University of California, priority 2008, dated 2017)
One block for each compound: values may come before it.

Experiments:
[1] = system: S6K, S6, 4EBP1 phosphorylation in L6 myotubes; test: Phosphorylation of S6K, S6 and 4EBP1 in insulin stimulated L6 myotubes; format: cell-based
[2] = system: Akt substrates (GSK3, TSC2, FoxO1/O3a) in L6 myotubes; test: Phosphorylation of Akt substrates in insulin stimulated L6 myotubes; format: cell-based; settings: FIG. 6
[3] = system: Akt phosphorylation (S473, T308) in MEFs; test: Akt phosphorylation in wild-type and SIN1−/− mouse embryonic fibroblasts (immunoblot); format: cell-based; settings: SIN1−/− MEFs
Method: Wild-type and SIN1−/− primary mouse embryonic fibroblasts (MEFs) were grown in DMEM supplemented with about 10% FBS, glutamine and penicillin/streptomycin. MEFs were treated with TORKinib at about 2.5, 0.63, and 0.16 uM; rapamycin at approximately 15 nM; or PIK-90 at 625 nM for 30 minutes prior to insulin stimulation (e.g. 100 nM) for 10 minutes. Cells were lysed by scraping into ice cold lysis buffer (typically 300 mM NaCl, 50 mM Tris pH 7.5, 5 mM EDTA, 1% TRITON™ X-100, 0.02% NaN3, 20 nM microcystin, Sigma phosphatase inhibitor cocktails 1 and 2, Roche protease inhibitor cocktail and 2 mM PMSF). After contacting cells with lysis buffer, the solution was briefly sonicated. Lysates were cleared by centrifugation, resolved by SDS-PAGE, transferred to nitrocellulose and immunoblotted using antibodies to phospho-Akt S473, phospho-Akt T308, Akt, and β-actin (Cell Signaling Technologies).

[4] = system: Akt phosphorylation (S473, T308) in L6 myotubes; test: Akt phosphorylation in insulin stimulated L6 myotubes (immunoblot); format: cell-based; settings: 100 nM insulin, FIG. 3
Method: L6 myoblasts were grown typically grown in DMEM supplemented with about 10% FBS, glutamine and penicillin/streptomycin. Confluent L6 myoblasts were differentiated into mytubes by culturing them for approximately 5 days in media containing about 2% FBS. L6 myotubes were maintained in media containing approximately 2% FBS until use.
In order to compare the effect of TORKinibs and PIK-90 on Akt phosphorylation, L6 myotubes were serum starved overnight and incubated with inhibitors or about 0.1% DMSO for approximately 30 minutes prior to stimulation with insulin (e.g. 100 nM) for about 10 minutes. Cells were lysed by scraping into ice cold lysis buffer (generally: 300 mM NaCl, 50 mM Tris pH 7.5, 5 mM EDTA, 1% TRITON™ X-100, 0.02% NaN3, 20 nM microcystin, Sigma phosphatase inhibitor cocktails 1 and 2, Roche protease inhibitor cocktail and 2 mM PMSF). After contacting cells with lysis buffer, the solution was briefly sonicated. Lysates were cleared by centrifugation, resolved by SDS-PAGE, transferred to nitrocellulose and immunoblotted using antibodies to phospho-Akt S473, phospho-Akt T308, Akt, and β-actin (Cell Signaling Technologies).

AML = test: Colony assay using AML specimens; format: cell-based, Human; settings: expected
Method: Human Ph− B-ALL and AML specimens are obtained. Ph− B-ALL and AML are cytogenetically diverse, with diverse therapeutic regimens currently in use depending on patient risk factors. The majority of Ph− B-ALL patients are treated initially with a combination of three drugs: glucocorticoid (e.g. dexamethasone), vincristine, and asparaginase or anthracycline (e.g. daunorubicin). Most AML patients receive an anthracycline only. Pilot experiments with 3 patient samples are conducted to determine concentrations of vincristine (Ph− ALL) or daunorubicin (AML) that partially reduce colony formation in methylcellulose. It is expected that these drugs are effective in the range of 0.1-1 μM (vincristine) and 3-30 nM (daunorubicin). Optionally, the Ph-ALL assays may be supplemented with dexamethasone and/or daunorubicin.

PI3K γ = target: T1, PI3K γ (Homo sapiens, UniProt P48736); test: Kinase inhibition assay, PI3K γ; format: biochemical
T1 construct: Purified kinase domains (e.g. mTor, P110α, P110β, P110γ, P110δ, PI4Kβ, DNA-PK, PKCα, PKCβ1, PKCβII, RET, and JAK2)

PI3K α = target: T2, PI3K α (Homo sapiens, UniProt P42336); test: Kinase inhibition assay, PI3K α; format: biochemical
T2 construct: Purified kinase domains (e.g. mTor, P110α, P110β, P110γ, P110δ, PI4Kβ, DNA-PK, PKCα, PKCβ1, PKCβII, RET, and JAK2)

PI3K β = target: T3, PI3K β (Homo sapiens, UniProt P42338); test: Kinase inhibition assay, PI3K β; format: biochemical
T3 construct: Purified kinase domains (e.g. mTor, P110α, P110β, P110γ, P110δ, PI4Kβ, DNA-PK, PKCα, PKCβ1, PKCβII, RET, and JAK2)

PC3 cells = test: Inhibition of proliferation of PC3 cells; format: cell-based; settings: Homo sapiens, PC-3
PI3K δ = target: T4, PI3K δ (Homo sapiens, UniProt O00329); test: Kinase inhibition assay, PI3K δ; format: biochemical
T4 construct: Purified kinase domains (e.g. mTor, P110α, P110β, P110γ, P110δ, PI4Kβ, DNA-PK, PKCα, PKCβ1, PKCβII, RET, and JAK2)

mTor = target: T5, mTor (Homo sapiens, UniProt P42345); test: Kinase inhibition assay, mTor; format: biochemical
T5 construct: Purified kinase domains (e.g. mTor, P110α, P110β, P110γ, P110δ, PI4Kβ, DNA-PK, PKCα, PKCβ1, PKCβII, RET, and JAK2)

p190 leukemic cells = test: Syngenic mouse leukemia transplant model (p190); format: in vivo, Balb/c mice; settings: for number of cycling leukemic blasts / apoptosis of leukemic blast cells: bone marrow and spleen; for number of cycling leukemic blasts: FIG. 23; for apoptosis of leukemic blast cells: FIG. 24
Method: The murine bone marrow infection/transplantation method was used to determine the effect of kinase inhibitors on disregulated cellular proliferation […]. The MSCV-p190-BCR-Abl-Ires-GFP (MIG-p190) or MSCV-p190-BCR-Abl-Ires-hCD4Δtail (MIC-p190) retroviral vectors were assembled in 293T cells and used to transduce bone marrow cells. The GFP and CD4Δtail markers allow quantitation by FACS analysis and/or enrichment by magnetic sorting of transduced cells.
These cells were administered together with a radioprotective dose of about 5×10^6 normal bone marrow cells from 3-5 week old donor Balb/c mice. […] Mice who became sick after about 14 days were euthanized and lymphoid organs were harvested for analysis. Kinase inhibitor treatment began about 10 days after leukemic cell injection and continued daily until the mice became sick or a maximum of approximately 35 days post-transplant. Inhibitors were given by oral lavage.
Peripheral blood cells were collected approximately on day 10 (pre-treatment) and upon euthanization (post treatment), contacted with labeled anti-hCD4 antibodies and counted by flow cytometry.
Mice were injected with the BrdU analogue EdU and sacrificed. Bone marrow and spleen were collected, blast cells were harvested from the tissue, and stained with antibodies to hCD4, and analyzed by flow cytomtery.
Bone marrow and spleen were collected, blast cells were harvested from the tissue, and stained with antibodies to hCD4, Annexin V, and 7AAD, and analyzed by flow cytometry. […] The results also show significant increase at the concentrations examined in induction of apoptosis at the concentrations examined of imatinib in combination with rapamycin or PI-103.

[5] = system: cap-dependent translation; test: Cap-dependent translation, m7GTP affinity, p190 cells; format: cell-based; settings: IM at 5 μM; FIG. 38D
[6] = system: p190 BCR-Abl transformed bone marrow cells; test: Colony forming assay with p190 BCR-Abl transformed murine bone marrow cells; format: cell-based; settings: compared to rapamycin; FIG. 17
p190 transduced cells [7] = test: MTS viability assay of p190 transduced cells; format: cell-based, murine
p190 transduced cells [8] = test: Combination with imatinib on p190 transduced cells (MTS, combination index); format: cell-based, murine
[9] = system: CD19+ CD34+ B cell progenitors from Ph+ and Ph− patients; test: Colony forming assay with human B-ALL cells; format: cell-based; settings: about 50 nM dasatinib; FIG. 18
Ph− B-ALL = test: Colony assay using Ph− B-ALL specimens; format: cell-based, Human; settings: expected
[10] = system: myristolated-Akt transgenic thymocytes tumors; test: Akt murine allograft tumor model; format: in vivo, NOD/SCID mice; settings: after 20 days of treatment
[11] = system: ENaC-dependent Na+ current; test: ENaC-dependent Na+ transport in mpkCCD cells; settings: prolonged treatment (>24 h)
PKCα = target: T6, PKCα (Homo sapiens, UniProt P17252); test: Kinase inhibition assay, PKCα; format: biochemical; settings: at about 1 μM or less
T6 construct: Purified kinase domains (e.g. mTor, P110α, P110β, P110γ, P110δ, PI4Kβ, DNA-PK, PKCα, PKCβ1, PKCβII, RET, and JAK2)

T4 sequence (O00329 745-1027 limits assumed): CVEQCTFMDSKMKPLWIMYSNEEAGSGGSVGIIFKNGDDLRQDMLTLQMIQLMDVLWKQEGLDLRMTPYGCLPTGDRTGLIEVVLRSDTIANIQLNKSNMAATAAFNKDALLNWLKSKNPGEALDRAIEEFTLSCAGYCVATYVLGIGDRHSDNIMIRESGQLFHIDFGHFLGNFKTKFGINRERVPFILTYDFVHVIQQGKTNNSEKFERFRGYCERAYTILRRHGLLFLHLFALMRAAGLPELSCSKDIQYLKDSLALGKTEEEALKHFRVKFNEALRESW
T4 sequence (P27986 whole entry partner, the tested form may be a part): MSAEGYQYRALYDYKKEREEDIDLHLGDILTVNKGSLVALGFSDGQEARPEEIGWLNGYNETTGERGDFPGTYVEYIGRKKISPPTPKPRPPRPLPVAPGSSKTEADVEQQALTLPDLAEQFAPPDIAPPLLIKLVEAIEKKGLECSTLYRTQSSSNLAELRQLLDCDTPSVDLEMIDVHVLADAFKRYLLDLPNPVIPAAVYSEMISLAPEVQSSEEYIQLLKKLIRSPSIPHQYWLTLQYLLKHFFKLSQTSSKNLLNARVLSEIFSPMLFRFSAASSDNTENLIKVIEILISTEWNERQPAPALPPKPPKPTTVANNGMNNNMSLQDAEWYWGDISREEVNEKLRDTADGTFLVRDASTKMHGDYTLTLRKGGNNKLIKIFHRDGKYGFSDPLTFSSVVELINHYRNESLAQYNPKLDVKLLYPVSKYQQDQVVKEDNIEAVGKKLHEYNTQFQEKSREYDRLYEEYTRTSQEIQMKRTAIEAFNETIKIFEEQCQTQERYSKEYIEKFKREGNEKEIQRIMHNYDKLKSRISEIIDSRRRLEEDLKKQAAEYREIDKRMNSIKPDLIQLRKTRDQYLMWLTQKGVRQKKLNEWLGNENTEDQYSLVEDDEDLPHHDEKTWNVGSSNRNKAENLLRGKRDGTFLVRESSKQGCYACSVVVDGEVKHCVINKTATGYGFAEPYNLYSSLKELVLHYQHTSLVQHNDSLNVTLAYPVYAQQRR
T5 sequence (P42345 2156-2469 limits assumed): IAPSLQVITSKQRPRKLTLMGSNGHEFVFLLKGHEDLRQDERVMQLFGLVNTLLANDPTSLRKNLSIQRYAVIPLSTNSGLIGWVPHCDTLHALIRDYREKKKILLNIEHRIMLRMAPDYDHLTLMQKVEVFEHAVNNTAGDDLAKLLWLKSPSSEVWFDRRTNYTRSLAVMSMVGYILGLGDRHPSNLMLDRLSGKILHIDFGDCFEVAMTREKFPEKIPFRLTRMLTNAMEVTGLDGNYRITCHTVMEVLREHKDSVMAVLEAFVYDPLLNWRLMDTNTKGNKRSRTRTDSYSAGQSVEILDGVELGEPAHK
T3 sequence (P42338 772-1053 limits assumed): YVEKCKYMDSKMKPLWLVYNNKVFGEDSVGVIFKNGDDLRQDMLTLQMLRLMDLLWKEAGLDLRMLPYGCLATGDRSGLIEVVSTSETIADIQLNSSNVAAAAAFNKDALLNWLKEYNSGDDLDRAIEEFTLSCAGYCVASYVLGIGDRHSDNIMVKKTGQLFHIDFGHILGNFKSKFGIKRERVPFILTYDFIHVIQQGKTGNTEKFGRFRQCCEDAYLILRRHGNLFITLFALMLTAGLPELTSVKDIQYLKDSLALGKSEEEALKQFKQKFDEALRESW
T3 sequence (P27986 whole entry partner, the tested form may be a part): as the sequence (P27986 whole entry partner, the tested form may be a part) above
T2 sequence (P42336 765-1051 limits assumed): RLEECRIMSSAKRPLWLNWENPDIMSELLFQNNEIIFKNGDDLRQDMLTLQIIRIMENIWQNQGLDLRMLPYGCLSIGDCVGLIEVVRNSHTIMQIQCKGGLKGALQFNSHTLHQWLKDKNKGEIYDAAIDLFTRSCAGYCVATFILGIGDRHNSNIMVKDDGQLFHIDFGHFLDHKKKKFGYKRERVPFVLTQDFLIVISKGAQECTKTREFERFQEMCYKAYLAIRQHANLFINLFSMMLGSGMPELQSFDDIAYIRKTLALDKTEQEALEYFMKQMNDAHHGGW
T2 sequence (P27986 whole entry partner, the tested form may be a part): as the sequence (P27986 whole entry partner, the tested form may be a part) above
T1 sequence (P48736 797-1080 limits assumed): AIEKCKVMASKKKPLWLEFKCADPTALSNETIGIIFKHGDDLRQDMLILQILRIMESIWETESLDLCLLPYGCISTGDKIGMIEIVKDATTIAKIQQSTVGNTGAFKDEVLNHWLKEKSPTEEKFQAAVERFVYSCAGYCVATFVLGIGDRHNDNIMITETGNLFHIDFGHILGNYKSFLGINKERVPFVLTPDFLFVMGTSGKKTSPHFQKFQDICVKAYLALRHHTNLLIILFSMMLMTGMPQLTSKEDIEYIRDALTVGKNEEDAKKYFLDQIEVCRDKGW

Compound: COc1ccc2c(c1OC)N=C(NC(=O)c1cccnc1)N1CCN=C21 [PIK-90, reference compound]
phosphorylation of 4EBP1 at T37/46 [1]: does not reduce
phosphorylation of Akt and its substrates [2]: completely inhibited
phosphorylation of Akt T308 [3]: blocks phosphorylation of T308
insulin stimulated phosphorylation of Akt at S473 and T308 [4]: inhibit the phosphorylation of both Akt sites equipotently

Compound: COc1cccc2c1C(=O)c1c(O)c3c(c(O)c1C2=O)C[C@@](O)(C(C)=O)C[C@@H]3O[C@H]1C[C@H](N)[C@H](O)[C@H](C)O1 [daunorubicin]
effective range, partial reduction of colony formation (AML): 3 to 30 nM

IC50 (PI3K γ): 450 nM
IC50 (PI3K α): 3460 nM
IC50 (PI3K β): 3580 nM
IC50 (PC3 cells): 38 nM
IC50 (PI3K δ): 330 nM
IC50 (mTor): 0.7 nM
Compound: CC(C)n1nc(-c2cc3cccc(O)c3[nH]2)c2c(N)ncnc21

Compound: Cc1ccc(NC(=O)c2ccc(CN3CCN(C)CC3)cc2)cc1Nc1nccc(-c2cccnc2)n1 [imatinib]
number of cycling leukemic blasts (p190 leukemic cells): significantly reduced the number of cycling leukemic blasts
apoptosis of leukemic blast cells (p190 leukemic cells): induction of apoptosis in leukemic blast cells
splenomegaly (p190 leukemic cells; oral lavage daily, FIG. 21): significant decrease in splenomegaly
cap-dependent translation [5]: inhibit cap-dependent translation

Compound: Cn1c(=O)n(-c2ccc(C(C)(C)C#N)cc2)c2c3cc(-c4cnc5ccccc5c4)ccc3ncc21 [BEZ235]
colony forming activity in combination with imatinib [6]: potentiate the effects of a half maximal concentration of imatinib
IC50 (p190 transduced cells [7]; Mus musculus, stated as treatment concentration = IC50): ~5 nM
synergy with imatinib (combination index) (p190 transduced cells [8]; over a broad dose range, FIG. 16): moderate to strong synergy

Compound: Oc1cccc(-c2nc(N3CCOCC3)c3oc4ncccc4c3n2)c1 [PI-103]
number of cycling leukemic blasts (p190 leukemic cells): significantly reduced the number of cycling leukemic blasts
apoptosis of leukemic blast cells (p190 leukemic cells): induction of apoptosis in leukemic blast cells
colony formation in combination with dasatinib [9]: stronger effect of dasatinib-PI-103 combination as compared to dasatinib-rapamycin combination
effect on anti-proliferative effects of imatinib (p190 transduced cells [8]; 48 hrs MTS, FIG. 19): potentiate the anti-proliferative effects of imatinib
combination index with imatinib (p190 transduced cells [8]; over a broad dose range, FIG. 20): more synergistic than rapamycin

Compound: Cc1ccccc1-n1c(Cn2cnc3c(N)ncnc32)nc2cccc(C)c2c1=O [IC87114]
type of effect on cell viability (p190 transduced cells [7]; plateau at high concentrations, 48 hrs): primarily cytostatic

Compound: CC[C@]1(O)C[C@H]2CN(CCc3c([nH]c4ccccc34)[C@@](C(=O)OC)(c3cc4c(cc3OC)N(C=O)[C@H]3[C@@](O)(C(=O)OC)[C@H](OC(C)=O)[C@]5(CC)C=CCN6CC[C@]43[C@@H]65)C2)C1 [vincristine, reference compound]
effective range, partial reduction of colony formation (Ph− B-ALL): 0.1 to 1 µM

Compound: CO[C@H]1C[C@@H]2CC[C@@H](C)[C@@](O)(O2)C(=O)C(=O)N2CCCC[C@H]2C(=O)O[C@H]([C@H](C)C[C@@H]2CC[C@@H](O)[C@H](OC)C2)CC(=O)[C@H](C)/C=C(\C)[C@@H](O)[C@@H](OC)C(=O)[C@H](C)C[C@H](C)/C=C/C=C/C=C/1C [rapamycin, reference compound]
body weight [10]: maintained body weight

IC50 (PI3K α): 5750 nM
IC50 (PI3K β): 25000 nM
IC50 (PC3 cells): 11800 nM
IC50 (PI3K δ): 9800 nM
IC50 (mTor): 14 nM
Compound: CC(=O)N1CCC(n2nc(-c3cc4cc(O)ccc4[nH]3)c3c(N)ncnc32)CC1

Compound: O=c1cc(N2CCOCC2)oc2c(-c3ccccc3)cccc12 [LY294002, reference compound]
toxic effect of prolonged treatment [11]: diminishes electrical resistance and causes morphological changes

Compound: CC(C)n1nc(-c2cccc(C(=O)NC3=NCCS3)c2)c2c(N)ncnc21 [PP30]
phosphorylation of 4EBP1 at T37/46 [1]: able to inhibit
inhibition of PKCα (PKCα): does not inhibit PKCα significantly
insulin stimulated phosphorylation of Akt at S473 and T308 [4]: inhibit insulin stimulated phosphorylation of Akt at S473

IC50 (PI3K γ): 115 nM
IC50 (PI3K α): 279 nM
IC50 (PI3K β): 2160 nM
IC50 (PC3 cells): 1000 nM
IC50 (PI3K δ): 395 nM
IC50 (mTor): 26 nM
Compound: CC(C)n1nc(-c2cc3ccc(O)cc3[nH]2)c2c(N)ncnc21

IC50 (PI3K α): 11200 nM
IC50 (PC3 cells): 2060 nM
IC50 (mTor): 79 nM
Compound: CC(C)n1nc(-c2cc3ccccc3[nH]2)c2c(N)ncnc21
